Experimental data from patent US6046224A, “12 (S)--hete receptor blockers” (City of Hope, priority 1998, dated 2000).
Values joined by “and” are separate entries in the source; they are usually repeats but may differ in a detail not shown here. Equal entries are not always repeated. “Also recorded” adds a separate entry of the source. Structures can show the parent of a compound that is named as a salt. Where two headings read alike, the source gives them in different places.

Columns and labels:
[1] = system: 12(S)-HETE receptor (CHO-AT1a cells); experiment: [3H]12(S)-HETE binding to CHO-AT1a cells; design: species or system Chinese hamster; conditions: for blockade/displacement of [3H]12(S)-HETE binding: CHO-AT1a cells, 4° C.
Protocol: Kinetics of [^3 H]12(S)-HETE binding to CHO-AT1a cells. FIGS. 1 and 2 are a competition curves which examine the specificity of [^3 H]12(S)-HETE binding. CHO-AT1a cells were grown to confluence in 24 well tissue culture dishes in HAM's F12 medium containing 10% fetal calf serum. The cells were then rinsed and placed in fresh medium, HAM's F12/HEPES with no other additives (450 µl per well). Serial dilutions of unlabeled 12(S)-HETE or DuP654 were added to the wells. Commercial unlabeled 12(S)-HETE (BioMol Corp.) was dried and reconstituted in ethanol to obtain a stock solution of 5 mM. DuP654 was dissolved in DMSO to get a stock solution of 5 mM. These were then serially diluted and added in a volume of 1 u1 to the wells to obtain the final concentrations indicated. Then [^3 H]12(S)-HETE (10,000 cpm in a volume of 50 µl per well) was added from a stock solution obtained by adding the tracer to the medium. The plates were then incubated at 4° C. with continuous shaking for 2 hr. The cells were then washed 2 times with cold PBS and lysed in 0.3N NaOH (200 u1). Radioactivity in the cell lysates was quantitated in scintillation counter. Affinities and binding constants were obtained using […] computer software (Mlab, Civilized Software Inc., Bethesda, Md.).
Tritrated 12(S)-HETE binding is blocked by unlabeled 12(S)-HETE. DuP654, a 12(S)-HETE receptor antagonist, was shown also to block 12(S)-HETE at a concentration of 0.1 μM in both AT1a Σ and AT1a 27 cell types, two clones of CHO cells which overexpress the AII1a receptor. The cells were grown as described in Example 1.
Blockade of 12(S)-HETE binding by pertussis toxin. Cells were grown as described in Example 1. Prior to addition of drug (12(S)-HETE or DuP654) to the cells, the cultures were preincubated in HAM's F12 medium +0.1% BSA for two hours at 37° C. with or without 100 ng/ml pertussis toxin. Serial dilutions of unlabeled 12(S)-HETE or DuP654 were added, followed by [^3 H]12(S)-HETE as described for Example 1. After incubation and washing, radioactivity in the cell lysates was quantitated. As discussed above, pertussis toxin could also ablate 12(S)-HETE-induced mitogenic effects. This implicates the involvement of a Gi -protein-coupled receptor.

CHO-AT1a cells [2] = conditions: cited from earlier work; for inhibition of 12(S)-HETE-induced mitogenic effects (pertussis toxin): pretreatment of cells
[3] = system: c-jun amino terminal kinase (JNK); conditions: cited from earlier work
[4] = system: Human Aortic Endothelial Cells; experiment: Monocyte adhesion to human aortic endothelial cells, monocytes treated with 12(S)-HETE; format: cell-based; conditions: monocytes with 10^-9 M 12(S)-HETE, 12 minutes
Protocol: Neutrophil binding is not increased. […] See Example 10.
Monocytes were incubated with 10^-9 M 12(S)-HETE for 12 minutes at room temperature (RT) or 37° C. or left untreated at room temperature and assayed for monocytes adhesion. Eight fields were counted for each experiment.

[5] = system: Human Aortic Endothelial Cells; experiment: Monocyte binding to human aortic endothelial cells, endothelial cells treated; format: cell-based
Text: Lipoxygenases (LO) are metabolic enzymes which catalyze the stereospecific oxygenation of polyunsaturated fatty acids to hydroperoxy fatty acids (Hamberg et al., J. Biol. Chem. 242:5329-5335 (1967)). The physiological function of 12-LO, the mammalian enzyme which catalyzes the oxygenation of arachidonic acid to (S)-12-hydroperoxyeicosatetraenoic acid (12-HPETE) and (S)-12-hydroxyeicosatetraenoic acid (12(S)-HETE), is unclear. 12-LO exists as two isoforms which are the products of different genes, leukocyte-type 12-LO and platelet-type 12-LO, which share 65% homology at the amino acid level (Izumi et al., Proc. Natl. Acad. Sci., USA 87:7477-7481 (1990); Funk et al., Proc. Natl. Acad. Sci. USA 87:5638-5642 (1990)). […] 12(S)-HETE has direct mitogenic and hypertrophic effects in vascular cells. […] In addition, glucose-induced monocyte adhesion was abrogated by the inhibition of 12-LO using both phenidone, a non-specific LO inhibitor, and baicalein, a more specific 12-LO inhibitor. The adhesion caused by 12-LO products appears to be monocyte-specific.

12-LO [6] = conditions: Scheidegger et al. 1997; cited from earlier work
12-LO [7] = conditions: cited from earlier work
PAK [8] = conditions: cited from earlier work
PAK [9] = experiment: PAK activity in CHO-AT1a cells; format: cell-based, Chinese hamster; conditions: 10^-7 M 12(S)-HETE, 10 minutes
Protocol: CHO-AT1a cells were gently washed and placed in depletion medium (HAM's F-12 medium containing 1 mg.backslash.ml BSA and 20 mM HEPES, ph 7.4) for 72 hours prior to use. After incubation for 30 minutes, the cells were treated with 10^-7 M 12(S)-HETE or with ethanol. The 12(S)-HETE treatment was terminated by washing twice with PBS and adding 300 μl lysis buffer (50 mM HEPES. pH 7.5, containing 150 mM NaCl, 5 mM MgCl2, 1 mM EGTA, 50 mM NaF, 10 mM sodium pyrophosphate, 1% NP-40, 2.5% glycerol and 1 mM Na3 VO4 containing the protease inhibitors phenylmethylsulfonyl fluoride, leupeptin, and aprotonin) followed by sedimentation at 14,000× g at 4° C. for ten minutes. Protein determination was performed by the Bradford method. […] PAK activity was measured as follows. […] ATP, the kinase activity was measured in 60 μl kinase buffer. […] Results are expressed as stimulation over control.
For the PBD-transfected group, CHO-AT1a cells were transiently transfected with 15 μg PBD plasmid. […] The bottom panel illustrates the densitometric quantification. […] Results are expressed as stimulation over control. The PAK activity was measured as described in Example 7.
Cells were pretreated with different concentrations of the PI-3 kinase inhibitor, LY294002 or DMSO (control) for 30 minutes, then treated with 10^-7 M 12(S)-HETE or ethanol (control) for 10 minutes. PAK activity was measured as described in Example 7.

CHO-AT1a cells [10] = experiment: Growth/mitogenesis of CHO-AT1a cells; format: cell-based, Chinese hamster
Protocol: Partial blockade of 12(S)-HETE mitogensis by the specific angiotensin AT1a receptor antagonist, Losartan, in CHO-AT1a cells. (FIG. 5) CHO-AT1a cells were plated in 12-well dishes (about 5-10,000 cells per well) for 24 hr. in growth medium consisting of HAM's, F12+10% FCS. They were then serum depleted for 72 hours by replacing the medium with HAM's F12+0.1% BSA. This medium was then freshly replaced along with AII or 12-HETE (0.1 μM each) prior to addition of drug to the cells. Losartan was added as a solution in water to the cells 15 min. prior to the addition of AII or 12-HETE. Fresh medium containing the same concentrations of AII or 12(S)-HETE plus Losartan was replaced every 48 hours. At the end of 8 days, the medium was removed, and 1 ml trypsin was added per well followed by 1 ml isoton after 3 min. These trypsinized cells were counted on a Coulter counter. […] 12-HETE binding (FIG. 4).
The three cell lines, CHO-AT1a, CHO-AT1b and mock transfected CHO cells were gifts from Dr. Eric Clauser (Inserm Unit, Paris, France). These cells were plated in 12 well dishes in HAM's F12 medium +10% FCS. After 72 hours serum depletion in HAM's F12+0.05% FCS, the cells were treated with AII or 12(S)-HETE (0.1 μM). Cells counts (after trypsinization) were taken at 48 hour intervals and fresh medium along with AII or 12-HETE added at these 48 hour intervals.

[11] = system: 12(S)-HETE receptors on the human epidermal cell line SCL-II; conditions: Arenberger et al. 1993; cited from earlier work
[12] = system: AII-induced proliferation; conditions: cited from earlier work
[13] = HAEC incubated four hours with 12(S)-HETE, 240 min

Compound: pertussis toxin
- blockade/displacement of [3H]12(S)-HETE binding [1]: Blockade
- blockade/displacement of [3H]12(S)-HETE binding ([1]; listed as Pertussis toxin): blocked
- inhibition of 12(S)-HETE-induced mitogenic effects (pertussis toxin) (CHO-AT1a cells [2]): completely abrogated; also recorded: ablate
- inhibition of 12(S)-HETE-induced mitogenic effects (pertussis toxin) (CHO-AT1a cells [2]; listed as Pertussis toxin): ablate
- blockade of JNK activation by 12(S)-HETE ([3]; 12(S)-HETE-induced): block

Compound: CCCCC/C=C\C[C@H](O)/C=C/C=C\C/C=C\CCCC(=O)O [12(S)-HETE, (S)-12-hydroxyeicosatetraenoic acid]
- Monocyte Adhesion to Human Aortic Endothelial Cells, 12(S)-HETE (37° C.) ([4]; 37° C., P = 0.01): 39.0 ± 9.3
- Monocyte Adhesion to Human Aortic Endothelial Cells, 12(S)-HETE (RT) ([4]; RT, exp. 1 P = 0.016, exp. 2 P = 0.001): 39.6 ± 12.5 and 45.4 ± 7.6
- average increase in monocyte binding as compared to untreated cells [5, 13]: 3 fold
- range of increase in monocyte binding as compared to untreated cells [5, 13]: 1.5-5 fold

Compound: AII: growth factor and potent vasoconstrictor AII
- mitogenic effects in CHO-AT1a cells (CHO-AT1a cells [2]; Wen et al. 1996): sustained increase in DNA synthesis as well as cell number
- JNK activation ([3]; Wen et al. 1997): activate
- stimulation of 12-LO activity in murine macrophages (12-LO [6]): stimulate
- stimulation of 12-LO activity in smooth muscle cells (12-LO [7]): stimulate
- PAK activation by AII (PAK [8]): activate

Compound: O=C1CCN(c2ccccc2)N1 [phenidone]
- inhibition of glucose-induced monocyte adhesion [5]: abrogated

Compound: O=c1cc(N2CCOCC2)oc2c(-c3ccccc3)cccc12 [LY294002]
- inhibition of 12(S)-HETE-induced PAK activation (PAK [9]): inhibition

Compound: Oc1c(Cc2ccccc2)ccc2ccccc12 [DuP654, 2-phenylmethyl-1-naphthol]
- blockade of 12(S)-HETE binding at 0.1 μM ([1]; 0.1 μM, AT1a Σ and AT1a 27 clones): block
- reduction of 12(S)-HETE-induced cell growth at 0.1 μM (CHO-AT1a cells [10]; 12(S)-HETE-induced, 0.1 μM): significantly reduced
- inhibition of 12(S)-HETE-induced mitogenic effects (CHO-AT1a cells [10]; 12(S)-HETE-induced, CHO-AT1a cells): completely inhibit; also recorded: Complete inhibition
- reduction of AII-induced cell growth at 0.1 μM (CHO-AT1a cells [10]; AII-induced, 0.1 μM): significantly reduced
- inhibition of 12(S)-HETE binding to SCL-II cells [11]: specifically inhibit

Compound: O=c1cc(-c2ccccc2)oc2cc(O)c(O)c(O)c12 [baicalein]
- inhibition of glucose-induced monocyte adhesion [5]: abrogated
- inhibition of AII proliferative effects (CHO-AT1a cells [2]; AII-induced, CHO-AT1a cells): inhibited
- inhibition of proliferative effects of AII [12]: inhibited

Compound: CCCCc1nc(Cl)c(CO)n1Cc1ccc(-c2ccccc2-c2nn[nH]n2)cc1 [Losartan, 2-N-butyl-4-chloro-5-hydroxymethyl-1-[(2'-(1H-tetrazol-5-yl)biphenyl-4-yl)methyl]imidazole, potassium salt]
- blockade/displacement of [3H]12(S)-HETE binding ([1]; potassium salt): partially blocked
- inhibition of 12(S)-HETE-induced mitogenic effects (CHO-AT1a cells [10]; 12(S)-HETE-induced, CHO-AT1a cells, potassium salt): partially blocked
- inhibition of AII-induced proliferative effects (CHO-AT1a cells [10]; AII-induced, CHO-AT1a cells, potassium salt): fully inhibiting; also recorded: fully blocked
